Results as given in patent publication US20240279214A1, “ALPHA4 BETA7 INEGRIN ANTAGONISTS AND USES THEREOF” (XinThera, Inc., priority 2022, published 2024).
Like-named read-outs stand apart in the source and are kept apart here.

Conditions: 13-membered ring

## CCOC(=O)C[C@@H]1NC(=O)C(n2cc(CCN3CC(F)C3)c(C(F)(F)F)cc2=O)c2cc(ccc2F)Oc2cc(N3CC(OC)C3)cc(C)c2-c2cc(C)c(F)c1c2 (stereo partly shown)
From CCOC(=O)C[C@H](NC(=O)C(c1cc(Br)ccc1F)n1cc(CCN2CC(F)C2)c(C(F)(F)F)cc1=O)c1cc(-c2c(C)cc(N3CC(OC)C3)cc2O)cc(C)c1F, ether bond, CuI/(1R,2R)-N1,N2-dimethylcyclohexane-1,2-diamine/K2CO3, 1,4-dioxane, 30.0 mM, 100.0 °C, 2.0 h
  ring closure, isolated yield: 59.2%

## CCOC(=O)C[C@@H]1NC(=O)C(n2cc(CCN3CC(F)C3)c(C(F)(F)F)cc2=O)c2cccc(c2)Oc2cccc(Cl)c2-c2cc1c(F)c(C(F)(F)F)c2 (stereo partly shown)
From CCOC(=O)C[C@H](NC(=O)C(c1cccc(Br)c1)n1cc(CCN2CC(F)C2)c(C(F)(F)F)cc1=O)c1cc(-c2c(O)cccc2Cl)cc(C(F)(F)F)c1F, ether bond, CuI/N1,N2-dimethylcyclohexane-1,2-diamine/K2CO3, dioxane, 15.3 mM, 100.0 °C, 16.0 h
  ring closure, isolated yield: 55.1%

## CCOC(=O)C[C@@H]1NC(=O)C(n2cc(CCN3CC(F)C3)c(C(F)(F)F)cc2=O)c2cc(ccc2F)Oc2ccc(F)c(C)c2-c2cc(C)c(F)c1c2 (stereo in doubt)
From CCOC(=O)C[C@H](NC(=O)C(c1cc(Br)ccc1F)n1cc(CCN2CC(F)C2)c(C(F)(F)F)cc1=O)c1cc(-c2c(O)ccc(F)c2C)cc(C)c1F, ether bond, CuI/K2CO3/(1R,2R)-N1,N2-dimethylcyclohexane-1,2-diamine, dioxane, 34.0 mM, 100.0 °C, 16.0 h
  ring closure, isolated yield: 55.2%

## CCOC(=O)C[C@@H]1NC(=O)C(n2ccc(C(F)(F)F)c(CC)c2=O)c2cc(ccc2F)Oc2cccc(C)c2-c2cc(C)c(F)c1c2 (stereo partly shown)
From CCOC(=O)C[C@H](NC(=O)C(c1cc(Br)ccc1F)n1ccc(C(F)(F)F)c(CC)c1=O)c1cc(-c2c(C)cccc2O)cc(C)c1F, ether bond, CuI/(1R,2R)-N,N'-dimethylcyclohexane-1,2-diamine/K2CO3, 1,4-dioxane, 20.0 mM, 100.0 °C, 16.0 h
  ring closure, isolated yield: 56.1%

## CCOC(=O)C[C@@H]1NC(=O)C(n2cc(CCN(C)C)c(C(F)(F)F)cc2=O)c2cccc(c2)Oc2cccc(C)c2-c2cc(C)c(F)c1c2 (stereo in doubt)
From CCOC(=O)C[C@H](NC(=O)C(c1cccc(Br)c1)n1cc(CCN(C)C)c(C(F)(F)F)cc1=O)c1cc(-c2c(C)cccc2O)cc(C)c1F, ether bond, CuI/K2CO3/(1R,2R)-N1,N2-dimethylcyclohexane-1,2-diamine, 1,4-dioxane, 66.7 mM, 100.0 °C, 16.0 h
  ring closure, isolated yield: 61.3%

## CCOC(=O)C[C@@H]1NC(=O)C(n2cc(CCN3CC(F)C3)c(C(F)(F)F)cc2=O)c2cc(ccc2F)Oc2cc(N3C4CCC3COC4)cc(C)c2-c2cc(C)c(F)c1c2 (stereo partly shown)
From CCOC(=O)C[C@H](NC(=O)C(c1cc(Br)ccc1F)n1cc(CCN2CC(F)C2)c(C(F)(F)F)cc1=O)c1cc(-c2c(C)cc(N3C4CCC3COC4)cc2O)cc(C)c1F, ether bond, CuI/(1R,2R)-N1,N2-dimethylcyclohexane-1,2-diamine/K2CO3, dioxane, 27.5 mM, 100.0 °C, 16.0 h
  ring closure, isolated yield: 54.8%

## CCOC(=O)C[C@@H]1NC(=O)C(n2cc(CCN3CC(F)(F)C3)c(C(F)(F)F)cc2=O)c2cc(ccc2F)Oc2cccc(C)c2-c2cc(C)c(F)c1c2 (stereo partly shown)
From CCOC(=O)C[C@H](NC(=O)C(c1cc(Br)ccc1F)n1cc(CCN2CC(F)(F)C2)c(C(F)(F)F)cc1=O)c1cc(-c2c(C)cccc2O)cc(C)c1F, ether bond, CuI/(1R,2R)-N1,N2-dimethylcyclohexane-1,2-diamine/K2CO3, 1,4-dioxane, 26.0 mM, 100.0 °C, 16.0 h
  ring closure, isolated yield: 50.3%

## CCOC(=O)C[C@@H]1NC(=O)C(n2ccc(C(F)(F)F)c(OC)c2=O)c2cc(ccc2F)Oc2cccc(C)c2-c2cc(C)c(F)c1c2 (stereo partly shown)
From CCOC(=O)C[C@H](NC(=O)C(c1cc(Br)ccc1F)n1ccc(C(F)(F)F)c(OC)c1=O)c1cc(-c2c(C)cccc2O)cc(C)c1F, ether bond, CuI/(1S,2S)-N,N'-dimethylcyclohexane-1,2-diamine/K2CO3, 1,4-dioxane, 13.5 mM, 100.0 °C
  ring closure, isolated yield: 67.3%

## CCOC(=O)C[C@@H]1NC(=O)C(n2cc(CCN3CC(F)C3)c(C(F)(F)F)cc2=O)c2cccc(c2)Oc2cc(C)cc(C)c2-c2cc1c(F)c(C(F)(F)F)c2 (stereo partly shown)
From CCOC(=O)C[C@H](NC(=O)C(c1cccc(Br)c1)n1cc(CCN2CC(F)C2)c(C(F)(F)F)cc1=O)c1cc(-c2c(C)cc(C)cc2O)cc(C(F)(F)F)c1F, ether bond, CuI/(1R,2R)-N1,N2-dimethylcyclohexane-1,2-diamine/K2CO3, dioxane, 28.3 mM, 100.0 °C, 16.0 h
  ring closure, isolated yield: 66.2%

## CCOC(=O)C[C@@H]1NC(=O)C(n2cc(CCN3CC(F)C3)c(C(F)(F)F)cc2=O)c2cc(ccc2F)Oc2cc(F)cc(C)c2-c2cc(C)c(F)c1c2 (stereo in doubt)
From CCOC(=O)C[C@H](NC(=O)C(c1cc(Br)ccc1F)n1cc(CCN2CC(F)C2)c(C(F)(F)F)cc1=O)c1cc(-c2c(C)cc(F)cc2O)cc(C)c1F, ether bond, CuI/K2CO3/(1R,2R)-N1,N2-dimethylcyclohexane-1,2-diamine, dioxane, 30.0 mM, 100.0 °C, 16.0 h
  ring closure, isolated yield: 48.2%

## CCOC(=O)C[C@@H]1NC(=O)C(n2cc(CCN3CC(F)C3)c(C(F)(F)F)cc2=O)c2cc(ccc2F)Oc2cccc(C)c2-c2cc(Cl)c(F)c1c2 (stereo in doubt)
From CCOC(=O)C[C@H](NC(=O)C(c1cc(Br)ccc1F)n1cc(CCN2CC(F)C2)c(C(F)(F)F)cc1=O)c1cc(-c2c(C)cccc2O)cc(Cl)c1F, ether bond, CuI/K2CO3/(1R,2R)-N1,N2-dimethylcyclohexane-1,2-diamine, 1,4-dioxane, 46.7 mM, 100.0 °C, 16.0 h
  ring closure, isolated yield: 64.9%

## CCOC(=O)C[C@@H]1NC(=O)C(n2cc(CCN3CC(F)C3)c(C(F)(F)F)cc2=O)c2cc(ccc2F)Oc2nn(C)cc2-c2cc(C)c(F)c1c2 (stereo partly shown)
From CCOC(=O)C[C@H](N)c1cc(-c2cn(C)nc2Oc2ccc(F)c(C(C(=O)O)n3cc(CCN4CC(F)C4)c(C(F)(F)F)cc3=O)c2)cc(C)c1F, amide bond, EDCI/HOBt/DIEA, MeCN, 32.6 mM, 60.0 °C, 6.0 h
  ring closure, isolated yield: 29.9%

## CCOC(=O)C[C@@H]1NC(=O)C(n2cc(CCN3CC(F)C3)c(C(F)(F)F)cc2=O)c2cc(ccc2F)Oc2cccc(C)c2-c2cc(C)c(F)c1c2F (stereo partly shown)
From CCOC(=O)C[C@H](NC(=O)C(c1cc(Br)ccc1F)n1cc(CCN2CC(F)C2)c(C(F)(F)F)cc1=O)c1c(F)c(C)cc(-c2c(C)cccc2O)c1F, ether bond, CuI/K2CO3/(1R,2R)-N1,N2-dimethylcyclohexane-1,2-diamine, 1,4-dioxane, 48.0 mM, 100.0 °C
  ring closure, isolated yield: 72%

## CCOC(=O)C[C@@H]1NC(=O)C(n2cc(CCN3CC(F)C3)c(C(F)(F)F)cc2=O)c2cc(ccc2F)Oc2cc(C(C)(C)O)cc(C)c2-c2cc(C)c(F)c1c2 (stereo partly shown)
From CCOC(=O)C[C@H](NC(=O)C(c1cc(Br)ccc1F)n1cc(CCN2CC(F)C2)c(C(F)(F)F)cc1=O)c1cc(-c2c(C)cc(C(C)(C)O)cc2O)cc(C)c1F, ether bond, CuI/(1R,2R)-N1,N2-dimethylcyclohexane-1,2-diamine/K2CO3, 1,4-dioxane, 40.0 mM, 100.0 °C, 16.0 h
  ring closure, isolated yield: 28.3%

## ethyl 2-[(14S,17S)-14-{5-[3-(azetidin-1-yl) propyl]-2-oxo-4-(trifluoromethyl) pyridin-1-yl}-12,19-difluoro-3,20-dimethyl-15-oxo-8-oxa-16-azatetracyclo [16.3.1.1^{9,13}.0^{2,7}] tricosa-1(22),2(7),3,5,9,11,13(23),18,20-nonaen-17-yl] acetate
Ether bond, CuI/K2CO3/(1R,2R)-N1,N2-dimethylcyclohexane-1,2-diamine, 1,4-dioxane, 46.7 mM, 100.0 °C
  ring closure, isolated yield: 62.8%

## CCOC(=O)C[C@@H]1NC(=O)C(n2ccc(C(F)(F)F)cc2=O)c2cc(ccc2F)Oc2cccc(C)c2-c2cc(C)c(F)c1c2 (stereo partly shown)
From CCOC(=O)C[C@H](NC(=O)C(c1cc(Br)ccc1F)n1ccc(C(F)(F)F)cc1=O)c1cc(-c2c(C)cccc2O)cc(C)c1F, ether bond, CuI/(1R,2R)-N1,N2-dimethylcyclohexane-1,2-diamine/K2CO3, 1,4-dioxane, 40.0 mM, 100.0 °C, 16.0 h
  ring closure, isolated yield: 88.7%

## CCOC(=O)C[C@@H]1NC(=O)C(n2c(=O)c3ccncc3n(C)c2=O)c2cc(ccc2F)Oc2cccc(C)c2-c2cc(C)c(F)c1c2 (stereo partly shown)
From CCOC(=O)C[C@H](NC(=O)C(c1cc(Br)ccc1F)n1c(=O)c2ccncc2n(C)c1=O)c1cc(-c2c(C)cccc2O)cc(C)c1F, ether bond, CuI/K2CO3/(1R,2R)-N1,N2-dimethylcyclohexane-1,2-diamine, 1,4-dioxane, 50.0 mM, 100.0 °C, 2.0 h
  ring closure, isolated yield: 82.6%

## CCOC(=O)C[C@@H]1NC(=O)C(n2cc(CCN3CCC(F)(F)CC3)c(C(F)(F)F)cc2=O)c2cc(ccc2F)Oc2cccc(C)c2-c2cc(C)c(F)c1c2 (stereo partly shown)
From CCOC(=O)C[C@H](NC(=O)C(c1cc(Br)ccc1F)n1cc(CCN2CCC(F)(F)CC2)c(C(F)(F)F)cc1=O)c1cc(-c2c(C)cccc2O)cc(C)c1F, ether bond, CuI/K2CO3/(1R,2R)-N1,N2-dimethylcyclohexane-1,2-diamine, 1,4-dioxane, 36.3 mM, 100.0 °C, 16.0 h
  ring closure, isolated yield: 66.2%

## CCOC(=O)C[C@@H]1NC(=O)C(n2cc(CCN3CC(F)C3)c(C(F)(F)F)cc2=O)c2cc(ccc2F)Oc2cccc(C(F)(F)F)c2-c2cc(C)c(F)c1c2 (stereo in doubt)
From CCOC(=O)C[C@H](NC(=O)C(c1cc(Br)ccc1F)n1cc(CCN2CC(F)C2)c(C(F)(F)F)cc1=O)c1cc(-c2c(O)cccc2C(F)(F)F)cc(C)c1F, ether bond, CuI/K2CO3/N1,N2-dimethylcyclohexane-1,2-diamine, dioxane, 16.7 mM, 100.0 °C, 16.0 h
  ring closure, isolated yield: 66.7%

## CCOC(=O)C[C@@H]1NC(=O)C(n2cc(CCN3CC(F)C3)c(C(F)(F)F)cc2=O)c2cccc(c2)Oc2cccc(C)c2-c2cc(C)c(F)c1c2 (stereo in doubt)
From CCOC(=O)C[C@H](NC(=O)C(c1cccc(Br)c1)n1cc(CCN2CC(F)C2)c(C(F)(F)F)cc1=O)c1cc(-c2c(C)cccc2O)cc(C)c1F, ether bond, CuI/K2CO3, dioxane, 42.0 mM, 100.0 °C, 16.0 h
  ring closure, isolated yield: 33.4%

## ethyl 2-[(14S,17S)-20-cyclopropyl-12,19-difluoro-3-methyl-15-oxo-14-[2-oxo-4-(trifluoromethyl) pyridin-1-yl]-8-oxa-16-azatetracyclo [16.3.1.1^{9,13}.0^{2,7}]tricosa-1(22),2(7),3,5,9,11,13(23),18,20-nonaen-17-yl]acetate
Ether bond, CuI/K2CO3/(1R,2R)-N1,N2-dimethylcyclohexane-1,2-diamine, 1,4-dioxane, 33.3 mM, 100.0 °C
  ring closure, isolated yield: 56.2%

## CCOC(=O)C[C@@H]1NC(=O)C(n2cc(CCN3CC(F)C3)c(C(F)(F)F)cc2=O)c2cc(ccc2F)Oc2cccc(C)c2-c2cc1c(C)s2 (stereo partly shown)
From CCOC(=O)C[C@H](NC(=O)C(c1cc(Br)ccc1F)n1cc(CCN2CC(F)C2)c(C(F)(F)F)cc1=O)c1cc(-c2c(C)cccc2O)sc1C, ether bond, CuI/K2CO3/(1R,2R)-N1,N2-dimethylcyclohexane-1,2-diamine, dioxane, 26.0 mM, 100.0 °C
  ring closure, isolated yield: 55.7%
